The target of the test is T1, Plk1 (Homo sapiens, UniProt P53350).
T1 construct: in the presence of 15 nM Plk1 (A20-K338)
In words: Plk1 inhibition assay (radioactive-phosphate incorporation). The note with it: Ki(app) from [γ-33P]ATP incorporation, 25° C. In kind it is biochemical. On the procedure:
Compounds of the present invention may be evaluated as inhibitors of human PLK kinase using the following assays.
Compounds were screened for their ability to inhibit Plk1 using a radioactive-phosphate incorporation assay. Assays were carried out in a mixture of 25 mM HEPES (pH 7.5), 10 mM MgCl2, and 1 mM DTT. Final substrate concentrations were 50 μM [γ-33P]ATP (136 mCi 33P ATP/mmol ATP, Amersham Pharmacia Biotech/Sigma Chemicals) and 10 μM peptide (SAM68 protein Δ332-443). Assays were carried out at 25° C. in the presence of 15 nM Plk1 (A20-K338). An assay stock buffer solution was prepared containing all of the reagents listed above, with the exception of ATP and the test compound of interest. 30 μL of the stock solution was placed in a 96 well plate followed by addition of 2 μL of DMSO stock containing serial dilutions of the test compound (typically starting from a final concentration of 10 μM with 2-fold serial dilutions) in duplicate (final DMSO concentration 5%). The plate was pre-incubated for 10 minutes at 25° C. and the reaction initiated by addition of 8 μL [γ33P]ATP (final concentration 50 μM).
The reaction was stopped after 60 minutes by the addition of 100 μL 0.14M phosphoric acid. A multiscreen phosphocellulose filter 96-well plate (Millipore, Cat no. MAPHN0B50) was pretreated with 100 μL 0.2M phosphoric acid prior to the addition of 125 μL of the stopped assay mixture. The plate was washed with 4×200 μL 0.2M phosphoric acid. After drying, 100 μL Optiphase ‘SuperMix’ liquid scintillation cocktail (Perkin Elmer) was added to the well prior to scintillation counting (1450 Microbeta Liquid Scintillation Counter, Wallac).
After removing mean background values for all of the data points, Ki(app) data were calculated from non-linear regression analysis of the initial rate data using the Prism software package (GraphPad Prism version 3.0cx for Macintosh, GraphPad Software, San Diego Calif., USA).
Compounds were screened for their ability to inhibit Plk1 using a radioactive-phosphate incorporation assay. Assays were carried out in a mixture of 25 mM HEPES (pH 7.5), 10 mM MgCl2, 0.1% BSA, and 2 mM DTT. Final substrate concentrations were 150 μM (350 μM for determining values of <1 nM) [γ-33P]ATP (115 mCi 33P ATP/mmol ATP, Amersham Pharmacia Biotech/Sigma Chemicals) and 300 μM (450 μM for determining values of <1 nM) peptide (KKKISDELMDATFADQEAK) SEQ. ID NO. 1. Assays were carried out at 25° C. in the presence of 4 nM (1 nM for determining values of <1 nM) Plk1. An assay stock buffer solution was prepared containing all of the reagents listed above, with the exception of ATP and the test compound of interest. 30 μL of the stock solution was placed in a 96 well plate followed by addition of 2 μL of DMSO stock containing serial dilutions of the test compound (typically starting from a final concentration of 10 μM with 2-fold serial dilutions) in duplicate (final DMSO concentration 5%). The plate was pre-incubated for 10 minutes at 25° C. and the reaction initiated by addition of 8 μl [γ-33P]ATP (final concentration 150 μM (350 μM for determining values of <1 nM))).
The reaction was stopped after 90 minutes (240 minutes for determining values of <1 nM) by the addition of 100 μL 0.14M phosphoric acid. A multiscreen phosphocellulose filter 96-well plate (Millipore, Cat no. MAPHN0B50) was pretreated with 100 μL 0.2M phosphoric acid prior to the addition of 125 μL of the stopped assay mixture. The plate was washed with 4×200 μL 0.2M phosphoric acid. After drying, 100 μL Optiphase ‘SuperMix’ liquid scintillation cocktail (Perkin Elmer) was added to the well prior to scintillation counting (1450 Microbeta Liquid Scintillation Counter, Wallac).

Experimental findings from patent US8524902B2, “[1,2,4]triazolo[4,3-f]pteridines useful as inhibitors of protein kinases” (Vertex Pharmaceuticals Incorporated, priority 2006, dated 2013) are described below.

T1 sequence (P53350 20-338): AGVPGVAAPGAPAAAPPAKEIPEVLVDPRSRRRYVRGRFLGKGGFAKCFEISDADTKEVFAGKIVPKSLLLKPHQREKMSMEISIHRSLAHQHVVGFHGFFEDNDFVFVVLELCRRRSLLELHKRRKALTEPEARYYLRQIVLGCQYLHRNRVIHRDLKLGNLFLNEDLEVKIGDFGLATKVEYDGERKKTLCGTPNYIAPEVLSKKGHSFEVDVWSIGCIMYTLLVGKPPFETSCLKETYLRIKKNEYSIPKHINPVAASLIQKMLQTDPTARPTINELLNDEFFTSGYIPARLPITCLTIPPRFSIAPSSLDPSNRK

In the case of `CC[C@@H]1c2nncn2-c2cnc(Nc3ccc(C(=O)NC)cc3OC)nc2N1C1CCCC1` [Compound I-1, 4-((R)-5-cyclopentyl-4-ethyl-4,5-dihydro-[1,2,4]triazolo[4,3-f]pteridin-7-ylamino)-3-methoxy-N-methylbenzamide], the Ki was below 10 nM.
Consider `CC[C@@H]1c2nncn2-c2cnc(Nc3ccc(C(=O)NC4CCN(C)CC4)cc3OC)nc2N1C1CCCC1` [Compound I-2, 4-((R)-5-cyclopentyl-4-ethyl-4,5-dihydro-[1,2,4]triazolo[4,3-f]pteridin-7-ylamino)-3-methoxy-N-(1-methylpiperidin-4-yl)benzamide], for which the Ki is below 10 nM.
The figure for `CC[C@@H]1c2nncn2-c2cnc(Nc3ccc(C(=O)NC)cc3Cl)nc2N1C1CCCC1` [Compound I-4, 4-((R)-5-cyclopentyl-4-ethyl-4,5-dihydro-[1,2,4]triazolo[4,3]pteridin-7-ylamino)-3-chloro-N-methylbenzamide] is below 10 nM; for `CC[C@@H]1c2nncn2-c2cnc(Nc3ccc(C(=O)N(C)C)cc3C)nc2N1C1CCCC1` [Compound I-5, 4-((R)-5-cyclopentyl-4-ethyl-4,5-dihydro-[1,2,4]triazolo[4,3]pteridin-7-ylamino)-N,N,3-trimethylbenzamide] it is below 10 nM.
As to `CC[C@@H]1c2nncn2-c2cnc(Nc3ccc(C(=O)NC)cc3C)nc2N1C1CCCC1` [Compound I-6, 4-((R)-5-cyclopentyl-4-ethyl-4,5-dihydro-[1,2,4]triazolo[4,3]pteridin-7-ylamino)-N,3-dimethylbenzamide], the Ki is below 10 nM.
The figure for `CC[C@@H]1c2nccn2-c2cnc(Nc3ccc(C(=O)NC)cc3OC)nc2N1C1CCCC1` [Compound I-7, 4-((R)-5-cyclopentyl-6-ethyl-5,6-dihydroimidazo[1,2)pteridin-3-ylamino)-3-methoxy-N-methylbenzamide] is below 10 nM.
The figure for `CC[C@@H]1c2nncn2-c2cnc(Nc3ccc(C(=O)NC4CC4)cc3OC)nc2N1C1CCCC1` [Compound I-8, (R)-4-(5-cyclopentyl-4-ethyl-4,5-dihydro-[1,2,4]triazolo[4,3-f]pteridin-7-ylamino)-N-cyclopropyl-3-methoxybenzamide] is below 10 nM; for `CC[C@@H]1c2nncn2-c2cnc(Nc3ccc(C(=O)N[C@@H]4CCOC4)cc3OC)nc2N1C1CCCC1` [Compound I-9, 4-((R)-5-cyclopentyl-4-ethyl-4,5-dihydro-[1,2,4]triazolo[4,3-f]pteridin-7-ylamino)-3-methoxy-N—((R)-tetrahydrofuran-3-yl)benzamide] it is below 10 nM.
`CC[C@@H]1c2nncn2-c2cnc(Nc3ccc(C(=O)NC4CCCC4)cc3OC)nc2N1C1CCCC1` [Compound I-10, (R)—N-cyclopentyl-4-(5-cyclopentyl-4-ethyl-4,5-dihydro-[1,2,4]triazolo[4,3-f]pteridin-7-ylamino)-3-methoxybenzamide]: the Ki is below 10 nM.
The figure for `CC[C@@H]1c2nncn2-c2cnc(Nc3ccc(C(=O)NC4CC4)cc3)nc2N1C1CCCC1` [Compound I-11, (R)-4-(5-cyclopentyl-4-ethyl-4,5-dihydro-[1,2,4]triazolo[4,3-f]pteridin-7-ylamino)-N-cyclopropylbenzamide] is below 10 nM.
In the case of `CC[C@@H]1c2nncn2-c2cnc(Nc3ccc(C(=O)N4CC[C@H](F)C4)cc3OC)nc2N1C1CCCC1` [Compound I-12, (4-((R)-5-cyclopentyl-4-ethyl-4,5-dihydro-[1,2,4]triazolo[4,3-f]pteridin-7-ylamino)-3-methoxyphenyl)((S)-3-fluoropyrrolidin-1-yl)methanone] it was below 10 nM; in that of `CC[C@@H]1c2nnc(C)n2-c2cnc(Nc3ccc(C(=O)NC4CC4)cc3OC)nc2N1C1CCCC1` [Compound I-13, (R)-4-(5-cyclopentyl-4-ethyl-1-methyl-4,5-dihydro-[1,2,4]triazolo[4,3-f]pteridin-7-ylamino)-N-cyclopropyl-3-methoxybenzamide], below 10 nM; in that of `CC[C@@H]1c2nncn2-c2cnc(Nc3ccc(C(=O)NC4CC4)cc3F)nc2N1C1CCCC1` [Compound I-14, (R)-4-(5-cyclopentyl-4-ethyl-4,5-dihydro-[1,2,4]triazolo[4,3-f]pteridin-7-ylamino)-N-cyclopropyl-3-fluorobenzamide], below 10 nM.
The figure for `CC[C@@H]1c2nncn2-c2cnc(Nc3ccc(C(=O)NC4CC4)s3)nc2N1C1CCCC1` [Compound I-15, (R)-5-(5-cyclopentyl-4-ethyl-4,5-dihydro-[1,2,4]triazolo[4,3-f]pteridin-7-ylamino)-N-cyclopropylthiophene-2-carboxamide] is below 10 nM; for `CC[C@@H]1c2nncn2-c2cnc(Nc3ccc(C(=O)NC)cc3F)nc2N1C1CCCC1` [Compound I-16, (R)-4-(5-cyclopentyl-4-ethyl-4,5-dihydro-[1,2,4]triazolo[4,3-f]pteridin-7-ylamino)-3-fluoro-N-methylbenzamide] it is below 10 nM.
On to `CC[C@@H]1c2nncn2-c2cnc(Nc3ccc(C(=O)NC4CC(F)(F)C4)cc3OC)nc2N1C1CCCC1` [Compound I-17, (R)-4-(5-cyclopentyl-4-ethyl-4,5-dihydro-[1,2,4]triazolo[4,3-f]pteridin-7-ylamino)-N-(3,3-difluorocyclobutyl)-3-methoxybenzamide], for which the Ki is below 10 nM.
In the case of `CCNC(=O)c1ccc(Nc2ncc3c(n2)N(C2CCCC2)[C@H](CC)c2nncn2-3)c(OC)c1` [Compound I-18, (R)-4-(5-cyclopentyl-4-ethyl-4,5-dihydro-[1,2,4]triazolo[4,3-f]pteridin-7-ylamino)-N-ethyl-3-methoxybenzamide] it was below 10 nM; in that of `CCNC(=O)c1ccc(Nc2ncc3c(n2)N(C2CCCC2)[C@H](CC)c2nncn2-3)c(F)c1` [Compound I-19, (R)-4-(5-cyclopentyl-4-ethyl-4,5-dihydro-[1,2,4]triazolo[4,3-f]pteridin-7-ylamino)-N-ethyl-3-fluorobenzamide], below 10 nM; in that of `CC[C@@H]1c2nncn2-c2cnc(Nc3ccc(C(F)(F)F)cc3F)nc2N1C1CCCC1` [Compound I-20, (R)-5-cyclopentyl-4-ethyl-N-(2-fluoro-4-(trifluoromethyl)phenyl)-4,5-dihydro-[1,2,4]triazolo[4,3-f]pteridin-7-amine], below 10 nM.
The figure for `CC[C@@H]1c2nncn2-c2cnc(Nc3ccc(C(=O)NC)cc3C(F)(F)F)nc2N1C1CCCC1` [Compound I-21, (R)-4-(5-cyclopentyl-4-ethyl-4,5-dihydro-[1,2,4]triazolo[4,3-f]pteridin-7-ylamino)-N-methyl-3-(trifluoromethyl)benzamide] is below 10 nM; for `CC[C@@H]1c2nncn2-c2cnc(Nc3ccccc3)nc2N1C1CCCC1` [Compound I-22, (R)-5-cyclopentyl-4-ethyl-N-phenyl-4,5-dihydro-[1,2,4]triazolo[4,3-f]pteridin-7-amine] it is below 10 nM.
Take `CC[C@@H]1c2nncn2-c2cnc(Nc3ccncc3)nc2N1C1CCCC1` [Compound I-23, (R)-5-cyclopentyl-4-ethyl-N-(pyridin-4-yl)-4,5-dihydro-[1,2,4]triazolo[4,3-f]pteridin-7-amine]: the Ki was below 10 nM.
In the case of `CC[C@@H]1c2nncn2-c2cnc(Nc3ccc(C(=O)NC)cc3C(F)F)nc2N1C1CCCC1` [Compound I-24, (R)-4-(5-cyclopentyl-4-ethyl-4,5-dihydro-[1,2,4]triazolo[4,3-f]pteridin-7-ylamino)-3-(difluoromethyl)-N-methylbenzamide] it was below 10 nM.
